Measurements published in patent US20230271954A1 (Gossamer Bio Services, Inc., priority 2020, published 2023).

Key:
DGKζ = target: T1, DGKζ (Homo sapiens, UniProt Q13574); test: DGKζ biochemical assay (ADP-Glo); settings: read-out: DGK ζ IC50
T1 construct: purchased Carna 12-110

DGKα = DGKα (Homo sapiens, UniProt P23743); test: DGKα biochemical assay (ADP-Glo); settings: read-out: DGK α IC50
How it was run: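 ADP-Glo kinase assay using OAG/PS (1:2) lipid substrate, sonicated, in HEPES pH 7.0 buffer with MgCl2, CaCl2, DTT, BSA, Triton X-100. Enzyme preincubated with compound 30 min at RT; substrate with ATP (DGKα: 400 μM) added, 45 min RT. Luminescence read; % inhibition vs DMSO and no-enzyme controls.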

T1 sequence (Q13574 1-929 isoform Q13574-4): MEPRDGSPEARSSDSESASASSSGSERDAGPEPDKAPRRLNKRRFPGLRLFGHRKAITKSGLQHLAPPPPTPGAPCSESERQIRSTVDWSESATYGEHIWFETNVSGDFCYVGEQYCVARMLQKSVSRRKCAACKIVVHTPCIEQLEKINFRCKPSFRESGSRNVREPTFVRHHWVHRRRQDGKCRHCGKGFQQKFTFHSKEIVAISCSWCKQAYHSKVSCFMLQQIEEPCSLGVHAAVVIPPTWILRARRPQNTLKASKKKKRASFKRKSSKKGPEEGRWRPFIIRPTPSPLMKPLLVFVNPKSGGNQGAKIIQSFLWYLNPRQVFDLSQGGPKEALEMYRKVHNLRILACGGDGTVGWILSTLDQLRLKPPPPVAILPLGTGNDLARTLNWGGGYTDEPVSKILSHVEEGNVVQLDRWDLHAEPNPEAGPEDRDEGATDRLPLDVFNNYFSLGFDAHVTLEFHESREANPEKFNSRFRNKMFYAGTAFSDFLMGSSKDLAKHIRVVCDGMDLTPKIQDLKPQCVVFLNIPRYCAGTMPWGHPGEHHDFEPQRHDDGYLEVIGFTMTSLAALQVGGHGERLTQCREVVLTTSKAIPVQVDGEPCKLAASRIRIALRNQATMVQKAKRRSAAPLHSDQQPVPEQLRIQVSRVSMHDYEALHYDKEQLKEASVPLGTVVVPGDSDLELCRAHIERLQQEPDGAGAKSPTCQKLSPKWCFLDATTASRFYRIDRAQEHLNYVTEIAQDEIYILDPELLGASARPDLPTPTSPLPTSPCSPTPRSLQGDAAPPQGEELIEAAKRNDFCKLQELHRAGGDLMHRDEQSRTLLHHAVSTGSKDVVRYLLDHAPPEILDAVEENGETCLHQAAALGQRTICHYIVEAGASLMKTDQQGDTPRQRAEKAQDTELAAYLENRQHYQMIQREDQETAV
Chain of DGKα (P23743 whole entry): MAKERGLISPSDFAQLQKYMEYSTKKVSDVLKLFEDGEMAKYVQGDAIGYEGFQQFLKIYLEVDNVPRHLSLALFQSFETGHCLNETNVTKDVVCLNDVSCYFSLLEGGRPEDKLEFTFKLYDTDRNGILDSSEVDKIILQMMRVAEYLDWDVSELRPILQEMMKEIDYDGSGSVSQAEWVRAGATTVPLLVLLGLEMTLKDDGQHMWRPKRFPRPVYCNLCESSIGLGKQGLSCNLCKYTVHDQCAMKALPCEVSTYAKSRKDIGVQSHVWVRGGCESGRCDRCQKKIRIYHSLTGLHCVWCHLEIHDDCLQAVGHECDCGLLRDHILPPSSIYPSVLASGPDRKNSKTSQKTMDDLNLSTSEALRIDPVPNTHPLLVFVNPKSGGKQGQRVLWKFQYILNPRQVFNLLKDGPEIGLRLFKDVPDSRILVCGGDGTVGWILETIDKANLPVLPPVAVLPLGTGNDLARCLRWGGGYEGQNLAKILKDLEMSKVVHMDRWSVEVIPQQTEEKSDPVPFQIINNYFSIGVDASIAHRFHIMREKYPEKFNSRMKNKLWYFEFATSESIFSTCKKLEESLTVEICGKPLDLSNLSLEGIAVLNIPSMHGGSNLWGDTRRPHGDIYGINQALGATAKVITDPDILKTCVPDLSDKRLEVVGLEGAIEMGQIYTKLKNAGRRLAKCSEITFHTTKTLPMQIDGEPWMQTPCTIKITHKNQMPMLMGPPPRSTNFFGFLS

Row | SMILES | IC50 (DGKζ) | IC50 (DGKα)
1 | Cn1c(=O)c(C#N)c(N(C)[C@H]2CC[C@@H](N(CC3CC3)c3cccc(F)c3)CC2)c2nc(Cl)ccc21 [Example 22, cis-6-chloro-4-((4-((cyclopropylmethyl)(3-fluorophenyl)amino)cyclohexyl)(methyl)amino)-1-methyl-2-oxo-1,2-dihydro-1,5-naphthyridine-3-carbonitrile] | ≥ 1000 nM | ≥ 1000 nM
2 | Cn1c(=O)c(C#N)c(N(C)[C@H]2CC[C@H](N(CC3CC3)c3cccc(F)c3)CC2)c2nc(Cl)ccc21 [Example 23, trans-6-chloro-4-((4-((cyclopropylmethyl)(3-fluorophenyl)amino)cyclohexyl)(methyl)amino)-1-methyl-2-oxo-1,2-dihydro-1,5-naphthyridine-3-carbonitrile] | 100 to 1000 nM | 10 to 100 nM
3 | Cn1c(=O)cc(N(C)[C@H]2CC[C@@H](N(CC3CC3)c3cccc(F)c3)CC2)c2nc(C#N)ccc21 [Example 24, cis-8-((4-((cyclopropylmethyl)(3-fluorophenyl)amino)cyclohexyl)(methyl)amino)-5-methyl-6-oxo-5,6-dihydro-1,5-naphthyridine-2-carbonitrile] | ≥ 1000 nM | 10 to 100 nM
4 | Cn1c(=O)cc(N(C)[C@H]2CC[C@H](N(CC3CC3)c3cccc(F)c3)CC2)c2nc(C#N)ccc21 [Example 25, trans-8-((4-((cyclopropylmethyl)(3-fluorophenyl)amino)cyclohexyl)(methyl)amino)-5-methyl-6-oxo-5,6-dihydro-1,5-naphthyridine-2-carbonitrile] | ≥ 1000 nM | ≥ 1000 nM
5 | Cn1c(=O)c(C#N)c(N(C)[C@H]2CC[C@@H](N(CC3CC3)c3cccc(F)c3)CC2)c2nc(C#N)ccc21 [Example 26, cis-8-((4-((cyclopropylmethyl)(3-fluorophenyl)amino)cyclohexyl)(methyl)amino)-5-methyl-6-oxo-5,6-dihydro-1,5-naphthyridine-2,7-dicarbonitrile] | 100 to 1000 nM | 10 to 100 nM
6 | Cn1c(=O)c(C#N)c(N(C)[C@H]2CC[C@H](N(CC3CC3)c3cccc(F)c3)CC2)c2nc(C#N)ccc21 [Example 27, trans-8-((4-((cyclopropylmethyl)(3-fluorophenyl)amino)cyclohexyl)(methyl)amino)-5-methyl-6-oxo-5,6-dihydro-1,5-naphthyridine-2,7-dicarbonitrile] | 100 to 1000 nM | 100 to 1000 nM
7 | COc1cccc(N(CC2CC2)[C@H]2CC[C@@H](N(C)c3c(C#N)c(=O)n(C)c4ccc(C#N)nc34)CC2)c1 [Example 28, cis-8-((4-((cyclopropylmethyl)(3-methoxyphenyl)amino)cyclohexyl)(methyl)amino)-5-methyl-6-oxo-5,6-dihydro-1,5-naphthyridine-2,7-dicarbonitrile] | 100 to 1000 nM | 10 to 100 nM

The remaining lines, values ahead:

Row | IC50 (DGKζ) | IC50 (DGKα) | SMILES
8 | ≥ 1000 nM | 100 to 1000 nM | COc1cccc(N(CC2CC2)[C@H]2CC[C@H](N(C)c3c(C#N)c(=O)n(C)c4ccc(C#N)nc34)CC2)c1 [Example 29, trans-8-((4-((cyclopropylmethyl)(3-methoxyphenyl)amino)cyclohexyl)(methyl)amino)-5-methyl-6-oxo-5,6-dihydro-1,5-naphthyridine-2,7-dicarbonitrile]
9 | 10 to 100 nM | < 10 nM | Cn1c(=O)c(C#N)c(N(C)[C@H]2CC[C@@H](N(CC3CC3)c3ccc(F)cc3)CC2)c2nc(C#N)ccc21 [Example 30, cis-8-((4-((cyclopropylmethyl)(4-fluorophenyl)amino)cyclohexyl)(methyl)amino)-5-methyl-6-oxo-5,6-dihydro-1,5-naphthyridine-2,7-dicarbonitrile]
10 | 100 to 1000 nM | 100 to 1000 nM | COc1cc(F)ccc1N(CC1CC1)[C@H]1CC[C@@H](N(C)c2c(C#N)c(=O)n(C)c3ccc(C#N)nc23)CC1 [Example 31, cis-8-((4-((cyclopropylmethyl)(4-fluoro-2-methoxyphenyl)amino)cyclohexyl)(methyl)amino)-5-methyl-6-oxo-5,6-dihydro-1,5-naphthyridine-2,7-dicarbonitrile]
11 | ≥ 1000 nM | 10 to 100 nM | COc1cc(N(CC2CC2)[C@H]2CC[C@@H](N(C)c3c(C#N)c(=O)n(C)c4ccc(Cl)nc34)CC2)ccc1F [Example 32, cis-6-chloro-4-((4-((cyclopropylmethyl)(4-fluoro-3-methoxyphenyl)amino)cyclohexyl)(methyl)amino)-1-methyl-2-oxo-1,2-dihydro-1,5-naphthyridine-3-carbonitrile]
12 | 100 to 1000 nM | 100 to 1000 nM | COc1cc(N(CC2CC2)[C@H]2CC[C@@H](N(C)c3c(C#N)c(=O)n(C)c4ccc(C#N)nc34)CC2)ccc1F [Example 33, cis-8-((4-((cyclopropylmethyl)(4-fluoro-3-methoxyphenyl)amino)cyclohexyl)(methyl)amino)-5-methyl-6-oxo-5,6-dihydro-1,5-naphthyridine-2,7-dicarbonitrile]
13 | ≥ 1000 nM | 100 to 1000 nM | COc1cc(N(CC2CC2)[C@H]2CC[C@H](N(C)c3c(C#N)c(=O)n(C)c4ccc(C#N)nc34)CC2)ccc1F [Example 34, trans-8-((4-((cyclopropylmethyl)(4-fluoro-3-methoxyphenyl)amino)cyclohexyl)(methyl)amino)-5-methyl-6-oxo-5,6-dihydro-1,5-naphthyridine-2,7-dicarbonitrile]
14 | ≥ 1000 nM | < 10 nM | Cn1c(=O)c(C#N)c(N(C)[C@H]2CC[C@@H](N(CC3CC3)c3ccc(Cl)cc3)CC2)c2nc(C#N)ccc21 [Example 35, cis-8-((4-((4-chlorophenyl)(cyclopropylmethyl)amino)cyclohexyl)(methyl)amino)-5-methyl-6-oxo-5,6-dihydro-1,5-naphthyridine-2,7-dicarbonitrile]
15 | ≥ 1000 nM | ≥ 1000 nM | COc1cc(N(CC2CC2)[C@H]2CC[C@H](N(C)c3cc(=O)n(C)c4ccc(C#N)nc34)CC2)ccc1F [Example 36, trans-8-((4-((cyclopropylmethyl)(4-fluoro-3-methoxyphenyl)amino)cyclohexyl)(methyl)amino)-5-methyl-6-oxo-5,6-dihydro-1,5-naphthyridine-2-carbonitrile]
16 | 100 to 1000 nM | ≥ 1000 nM | COc1cc(F)ccc1N(C1CC1)[C@H]1CC[C@H](N(C)c2c(C#N)c(=O)n(C)c3ccc(C#N)nc23)CC1 [Example 37, trans-8-((4-(cyclopropyl(4-fluoro-2-methoxyphenyl)amino)cyclohexyl)(methyl)amino)-5-methyl-6-oxo-5,6-dihydro-1,5-naphthyridine-2,7-dicarbonitrile]
17 | 100 to 1000 nM | 100 to 1000 nM | COc1cc(N(CC2CC2)[C@H]2CC[C@@H](N(C)c3cc(=O)n(C)c4ccc(C#N)nc34)CC2)ccc1F [Example 38, cis-8-((4-((cyclopropylmethyl)(4-fluoro-3-methoxyphenyl)amino)cyclohexyl)(methyl)amino)-5-methyl-6-oxo-5,6-dihydro-1,5-naphthyridine-2-carbonitrile]
18 | 100 to 1000 nM | 10 to 100 nM | COc1cc(N(CC2CC2)[C@H]2CC[C@H](N(C)c3c(C#N)c(=O)n(C)c4ccc(Cl)nc34)CC2)ccc1F [Example 39, trans-6-chloro-4-((4-((cyclopropylmethyl)(4-fluoro-3-methoxyphenyl)amino)cyclohexyl)(methyl)amino)-1-methyl-2-oxo-1,2-dihydro-1,5-naphthyridine-3-carbonitrile]
